# Test results reported in patent EP4273147A1, “SUBSTITUTED SPIROLACTAMS, SALTS THEREOF AND THEIR USE AS HERBICIDALLY ACTIVE SUBSTANCES” (Bayer Aktiengesellschaft, priority 2022, dated 2023).
# Assays:
# POLCO = assay: Herbicidal pre-emergence action, section C (Table C9); type: in vivo, Polygonum convolvulus; conditions: application rate 320 g/ha; visual grading after ca. 3 weeks
# VERPE [1] = assay: Herbicidal pre-emergence action, section C (Table C11); type: in vivo, Veronica persica; conditions: application rate 320 g/ha; visual grading after ca. 3 weeks
# Excerpt: (§5) Seeds of mono- and dicotyledonous weed plants and crop plants were sown, in plastic or organic planting pots, in sandy loam and covered with soil. The compounds according to the invention, formulated in the form of wettable powders (WP) or as emulsifiable concentrates (EC), were applied to the surface of the covering soil as aqueous suspension or emulsion, with the addition of 0.5% of an additive, at an application rate of 600 1 of water/ha (converted). Following treatment, the pots were placed in a greenhouse and kept under optimum growth conditions for the test plants.
# TRZAS [2] = assay: Pre-emergence effects on crop plants (Table D2); type: in vivo, Triticum aestivum; conditions: crop plant; application rate 80 g/ha; visual grading after ca. 3 weeks
# SETVI [3] = assay: Herbicidal post-emergence action, section E (Table E8); type: in vivo, Setaria viridis; conditions: application rate 320 g/ha; assessed visually after ca. 3 weeks
# Excerpt: (§1) 2 to 3 weeks after sowing, the test plants were sprayed in the single-leaf stage.
# LOLRI [4] = assay: Herbicidal pre-emergence action (Table A3); type: in vivo, Lolium rigidum; conditions: application rate 320 g/ha; visual grading after ca. 3 weeks
# How it was run: (§2)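 Seeds covered with soil after sowing in sandy loam; every pot carried one monocotyledonous and one dicotyledonous weed species as a double sowing.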
# ABUTH [5] = assay: Herbicidal pre-emergence action, section C (Table C1); type: in vivo, Abutilon theophrasti; conditions: application rate 320 g/ha; visual grading after ca. 3 weeks
# GLXMA = assay: Post-emergence effects on crop plants (Table F4); type: in vivo, Glycine max; conditions: application rate 80 g/ha, crop plant GLXMA
# Excerpt: as §1
# AMARE [6] = assay: Herbicidal post-emergence action (Table B11); type: in vivo, Amaranthus retroflexus; conditions: application rate 1280 g/ha
# How it was run: (§3)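 Each pot held sandy loam sown with a single mono- or dicot weed species, grown under controlled greenhouse conditions. Test plants were sprayed at the one-leaf stage, and after about 3 weeks of further growth the percentage activity relative to untreated plants was rated visually.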
# ORYZA [7] = assay: Post-emergence effects on crop plants (Table F3); type: in vivo, Oryza sativa; conditions: application rate 320 g/ha, crop plant ORYZA
# Excerpt: as §1
# ALOMY [8] = assay: Herbicidal pre-emergence action (Table A9); type: in vivo, Alopecurus myosuroides; conditions: application rate 320 g/ha; visual grading after ca. 3 weeks
# How it was run: as §2
# TRZAS [9] = assay: Post-emergence effects on crop plants (Table F2); type: in vivo, Triticum aestivum; conditions: application rate 80 g/ha, crop plant TRZAS
# Excerpt: as §1
# VIOTR [10] = assay: Herbicidal pre-emergence action, section C (Table C12); type: in vivo, Viola tricolor; conditions: application rate 80 g/ha; visual grading after ca. 3 weeks
# Excerpt: as §5
# STEME [11] = assay: Herbicidal post-emergence action (Table B9); type: in vivo, Stellaria media; conditions: application rate 1280 g/ha
# Protocol: (§4) Seeds of mono- and dicotyledonous weed plants were placed in plastic pots in sandy loam soil (doubly sown with in each case one species of mono- or dicotyledonous weed plants per pot), covered with soil and cultivated in a greenhouse under controlled growth conditions. 2 to 3 weeks after sowing, the test plants were treated at the one-leaf stage. […] After the test plants had been kept in the greenhouse under optimum growth conditions for about 3 weeks, the activity of the preparations was rated visually in comparison to untreated controls. For example, 100% activity = the plants have died, 0% activity = like control plants.
# ORYZA [12] = assay: Pre-emergence effects on crop plants (Table D3); conditions: crop plant; application rate 80 g/ha; visual grading after ca. 3 weeks
# ABUTH [13] = assay: Herbicidal pre-emergence action (Table A1); type: in vivo, Abutilon theophrasti; conditions: application rate 320 g/ha; visual grading after ca. 3 weeks vs untreated controls (100% = plants have died off, 0% = as control plants)
# How it was run: as §2
# ALOMY [14] = assay: Herbicidal pre-emergence action, section C (Table C2); type: in vivo, Alopecurus myosuroides; conditions: application rate 320 g/ha; visual grading after ca. 3 weeks
# Excerpt: as §5
# LOLRI [15] = assay: Herbicidal post-emergence action (Table B5); type: in vivo, Lolium rigidum; conditions: application rate 1280 g/ha; rated visually after about 3 weeks
# Protocol: as §4
# ECHCG [16] = assay: Herbicidal pre-emergence action (Table A2); type: in vivo, Echinochloa crus-galli; conditions: application rate 320 g/ha; visual grading after ca. 3 weeks
# How it was run: as §2
# LOLRI [17] = assay: Herbicidal pre-emergence action, section C (Table C7); type: in vivo, Lolium rigidum; conditions: application rate 80 g/ha; visual grading after ca. 3 weeks
# MATIN [18] = assay: Herbicidal pre-emergence action, section C (Table C8); type: in vivo, Matricaria inodora; conditions: application rate 320 g/ha; visual grading after ca. 3 weeks
# Excerpt: as §5
# SETVI [19] = assay: Herbicidal pre-emergence action, section C (Table C10); type: in vivo, Setaria viridis; conditions: application rate 80 g/ha; visual grading after ca. 3 weeks
# MATIN [20] = assay: Herbicidal pre-emergence action (Table A4); type: in vivo, Matricaria inodora; conditions: application rate 320 g/ha; visual grading after ca. 3 weeks
# How it was run: as §2
# SETVI [21] = assay: Herbicidal pre-emergence action (Table A5); type: in vivo, Setaria viridis; conditions: application rate 320 g/ha; visual grading after ca. 3 weeks
# How it was run: as §2
# SETVI [22] = assay: Herbicidal post-emergence action (Table B8); type: in vivo, Setaria viridis; conditions: application rate 1280 g/ha
# How it was run: as §3
# VERPE [23] = assay: Herbicidal pre-emergence action (Table A11); type: in vivo, Veronica persica; conditions: application rate 320 g/ha; visual grading after ca. 3 weeks
# How it was run: as §2
# ABUTH [24] = assay: Herbicidal post-emergence action (Table B1); type: in vivo, Abutilon theophrasti; conditions: application rate 1280 g/ha; treated at one-leaf stage; rated visually after about 3 weeks vs untreated controls (100% = plants have died, 0% = like control plants)
# How it was run: as §3
# STEME [25] = assay: Herbicidal pre-emergence action (Table A6); type: in vivo, Stellaria media; conditions: application rate 320 g/ha; visual grading after ca. 3 weeks
# How it was run: as §2
# MATIN [26] = assay: Herbicidal post-emergence action (Table B6); type: in vivo, Matricaria inodora; conditions: application rate 1280 g/ha; rated visually after about 3 weeks
# How it was run: as §3
# VERPE [27] = assay: Herbicidal post-emergence action, section E (Table E9); type: in vivo, Veronica persica; conditions: application rate 320 g/ha; assessed visually after ca. 3 weeks
# Excerpt: as §1
# KCHSC = assay: Herbicidal pre-emergence action (Table A10); type: in vivo, Kochia scoparia; conditions: application rate 1280 g/ha; visual grading after ca. 3 weeks
# How it was run: as §2
# ECHCG [28] = assay: Herbicidal post-emergence action (Table B3); type: in vivo, Echinochloa crus-galli; conditions: application rate 320 g/ha; rated visually after about 3 weeks
# How it was run: as §3
# POAAN [29] = assay: Herbicidal post-emergence action (Table B7); type: in vivo, Poa annua; conditions: application rate 320 g/ha
# How it was run: as §3
# ECHCG [30] = assay: Herbicidal post-emergence action, section E (Table E5); type: in vivo, Echinochloa crus-galli; conditions: application rate 80 g/ha; assessed visually after ca. 3 weeks
# Excerpt: as §1
# ALOMY [31] = assay: Herbicidal post-emergence action, section E (Table E2); type: in vivo, Alopecurus myosuroides; conditions: application rate 320 g/ha; assessed visually after ca. 3 weeks
# Excerpt: as §1
# POAAN [32] = assay: Herbicidal pre-emergence action (Table A7); type: in vivo, Poa annua; conditions: application rate 320 g/ha; visual grading after ca. 3 weeks
# How it was run: as §2
# AMARE [33] = assay: Herbicidal pre-emergence action (Table A8); type: in vivo, Amaranthus retroflexus; conditions: application rate 1280 g/ha; visual grading after ca. 3 weeks vs untreated controls (100% = plants have died off, 0% = as control plants)
# How it was run: as §2
# ECHCG [34] = assay: Herbicidal pre-emergence action, section C (Table C6); type: in vivo, Echinochloa crus-galli; conditions: application rate 80 g/ha; visual grading after ca. 3 weeks
# VERPE [35] = assay: Herbicidal post-emergence action (Table B10); type: in vivo, Veronica persica; conditions: application rate 320 g/ha
# How it was run: as §3
# VIOTR [36] = assay: Herbicidal post-emergence action, section E (Table E10); type: in vivo, Viola tricolor; conditions: application rate 320 g/ha; assessed visually after ca. 3 weeks
# Excerpt: as §1
# BRSNW [37] = assay: Pre-emergence effects on crop plants (Table D5); type: in vivo, Brassica napus; conditions: crop plant; application rate 80 g/ha; visual grading after ca. 3 weeks
# BRSNW [38] = assay: Post-emergence effects on crop plants (Table F5); type: in vivo, Brassica napus; conditions: application rate 80 g/ha, crop plant BRSNW
# Excerpt: as §1
# ZEAMX = assay: Post-emergence effects on crop plants (Table F1); type: in vivo, Zea mays; conditions: application rate 80 g/ha, crop plant ZEAMX
# Excerpt: as §1
# ALOMY [39] = assay: Herbicidal post-emergence action (Table B2); type: in vivo, Alopecurus myosuroides; conditions: application rate 320 g/ha; rated visually after about 3 weeks
# Protocol: as §4
smiles,measurement,setting,value
O=C1N(Cc2ccccc2F)CCCC12CCCN(Cc1ccccc1F)C2=O (racemic) [I-005],pre-emergence activity against POLCO,POLCO,80%
same,pre-emergence activity against VERPE,VERPE [1],80%
same,pre-emergence activity against TRZAS,TRZAS [2],20%
same,post-emergence activity against SETVI,SETVI [3],90%
same,pre-emergence activity against LOLRI,LOLRI [4],100%
same,pre-emergence activity against ABUTH,ABUTH [5],80%
same,post-emergence activity against GLXMA,GLXMA,20%
same,post-emergence activity against AMARE,AMARE [6],100%
same,post-emergence activity against ORYZA,ORYZA [7],0%
same,pre-emergence activity against ALOMY,ALOMY [8],90%
same,post-emergence activity against TRZAS,TRZAS [9],20%
same,pre-emergence activity against VIOTR,VIOTR [10],80%
same,post-emergence activity against STEME,STEME [11],90%
same,pre-emergence activity against ORYZA,ORYZA [12],20%
same,pre-emergence activity against ABUTH,ABUTH [13],90%
same,pre-emergence activity against ALOMY,ALOMY [14],100%
same,post-emergence activity against LOLRI,LOLRI [15],90%
same,pre-emergence activity against ECHCG,ECHCG [16],100%
same,pre-emergence activity against LOLRI,LOLRI [17],80%
same,pre-emergence activity against MATIN,MATIN [18],90%
same,pre-emergence activity against SETVI,SETVI [19],100%
same,pre-emergence activity against MATIN,MATIN [20],100%
same,pre-emergence activity against SETVI,SETVI [21],100%
same,post-emergence activity against SETVI,SETVI [22],100%
same,pre-emergence activity against VERPE,VERPE [23],100%
same,post-emergence activity against ABUTH,ABUTH [24],90%
same,pre-emergence activity against STEME,STEME [25],90%
same,post-emergence activity against MATIN,MATIN [26],100%
same,post-emergence activity against VERPE,VERPE [27],80%
same,pre-emergence activity against KCHSC,KCHSC,90%
same,post-emergence activity against ECHCG,ECHCG [28],100%
same,post-emergence activity against POAAN,POAAN [29],100%
same,post-emergence activity against ECHCG,ECHCG [30],80%
same,post-emergence activity against ALOMY,ALOMY [31],90%
same,pre-emergence activity against POAAN,POAAN [32],100%
same,pre-emergence activity against AMARE,AMARE [33],90%
same,pre-emergence activity against ECHCG,ECHCG [34],100%
same,post-emergence activity against VERPE,VERPE [35],90%
same,post-emergence activity against VIOTR,VIOTR [36],80%
same,pre-emergence activity against BRSNW,BRSNW [37],0%
same,post-emergence activity against BRSNW,BRSNW [38],20%
same,post-emergence activity against ZEAMX,ZEAMX,20%
same,post-emergence activity against ALOMY,ALOMY [39],90%
